Molecules are shown by their SMILES. Read-outs that look alike come from different tables or passages of the source.

The values below come from patent US9650365B2 (UNIVERSITY OF CONNECTICUT, priority 2014, dated 2017).

The subject of one experiment is Hh-dependent MB. To be noted: oral administration; cited from earlier work.
Experiment [1] deals with Hh signaling (Gli1 mRNA) in MERP MB cells. The experiment is described as follows: Down-regulation of Gli1 mRNA in MERP MB cells. The experiment is classed as cell-based, mice. As to conditions: Mus musculus; 48 hr incubation. Here is the method: General Information. Protocols for general cell culture, qPCR and Hh inhibition in C3H10T1/2 and ASZ cells are as previously described.^28 Protocols for the initiation and growth of Math1-Cre-ER; Ptc^fl/fl medulloblastoma tumors, isolation and in vitro culture of MERP MB cells, as wells as the anti-proliferation and qPCR studies performed in these cells were as previously described.^a Sonic Hedgehog (C25II) recombinant mouse protein was purchased from Life Technologies. aData was analyzed using GraphPad Prism 5 and reported values represent mean±SEM for at least two separate experiments performed in triplicate.

A further experiment relates to Ptch1 in C3Hs. Nature of the experiment: Down-regulation of Ptch1 in C3H10T1/2 cells. In kind it is cell-based, mouse.
Experiment [2] relates to Hh signaling (Gli1 mRNA) in ASZ cells. Nature of the experiment: Down-regulation of endogenous Gli1 mRNA in ASZ cells. The experiment is classed as cell-based, murine. To be noted: Mus musculus. The gist of the method:
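Hh pathway activated in C3H10T1/2 cells with exogenous agonist (recombinant Hh ligand or small molecule) alongside inhibitor; Gli1 mRNA measured by qPCR. Concentration-dependent Gli1 reduction also assessed in murine BCC ASZ cells; values mean±SEM, ≥2 experiments in triplicate.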

The test system of experiment [3] is Gli1 in DAOYs (cultured MB). The experiment is described as follows: Down-regulation of Gli1 in DAOY cells. The experiment is classed as cell-based. As to conditions: Homo sapiens. From the text: Additional analogues have been synthesized and characterized in the assays described above.
The next experiment deals with angiogenesis. As to conditions: background; cited from earlier work.
The next experiment concerns tube formation in HUVECs. The experiment is described as follows: HUVEC tube formation on Matrigel. In kind it is cell-based, human.

From the text for Ptch1 in C3Hs: For this assay, the wild-type and D477G Smo constructs will be transiently transfected into C3H10T1/2 cells and inhibition of pathway signaling assessed as previously described.

For the compound `CCC(C)n1ncn(-c2ccc(N3CCN(c4ccc(OCC5COC(Cn6cncn6)(c6ccc(Cl)cc6Cl)O5)cc4)CC3)cc2)c1=O` (stereo not drawn) [ITZ, itraconazole, reference compound], in the experiment on Hh-dependent MB, the survival entry is listed as “increased survival”. Further, the IC50 was 0.39 ± 0.06 µM in experiment [1]; 0.33 µM in the experiment on Ptch1 in C3Hs; 0.2 µM with Ptch1 in C3Hs (Mus musculus, C3H 10T1/2); 0.14 ± 0.02 µM in experiment [2] (48 h, read-out: IC50 (μM) ASZ, 48 hr incubation); 0.14 ± 0.02 µM in experiment [2] (read-out: Hh pathway inhibition ASZ, down-regulation of endogenous Gli1 mRNA); 0.14 ± 0.02 µM in experiment [2] (read-out: IC50 (μM) Gli1-ASZs). Further, the IC50 in experiment [3] was 0.6 ± 0.08 µM; in the experiment on angiogenesis, 160 nM. For the same compound, the “inhibition of tube formation” value in the experiment with tube formation in HUVECs (1 μM, 16 h) is “significant inhibition”; in the experiment on tube formation in HUVECs (0.1 and 1 μM, 24 hour), “significantly inhibited tube formation”. For the same compound, the “inhibition of tube formation (overall tube length and total tube junctions)” value with tube formation in HUVECs (10 μM, 16 h) is “comparable to that of the positive control suramin”.
